Test results published in patent US20220002772A1, “METHOD FOR PRODUCING ALLOLACTOSE” (priority 2019, published 2022).

How the values were obtained:
[1] = tested on: lac promoter on the pUC19 plasmid; experiment: Lac promoter inducibility by Blue-White screening method (JM109+pUC19 strain, X-Gal plates); type: cell-based, E. coli JM109; set-up: key to Blue coloration of formed colonies of JM109 + pUC19 strain: “x (cross)” indicates no blue coloration; “Δ (triangle)” indicates unclear blue coloration; “∘ (circle)” indicates clear blue coloration
Protocol: The lac promoter inducibility of allolactose was evaluated by the Blue-White screening method using E. coli JM109 and pUC19 plasmid.
Competent cells of E. coli JM109 (Takara Bio) were transformed with pUC19 plasmid (Takara Bio), and cultured on LB agar medium containing 50 mg/L ampicillin at 37° C. overnight, to form colonies. The formed colonies were streaked on LB agar medium containing 50 mg/L ampicillin, and single colonies were obtained, to thereby obtain a strain JM109+pUC19. […] Beta-galactosidase activity of the strain JM109 is lost unless alpha-complementarity is exerted.
The reaction mixture containing 55.8 g/L of allolactose obtained in (4) above was subjected to heating at 95° C. for 10 minutes to inactivate the enzyme, and the supernatant was passed through a 0.22 μm pore size filter, to obtain an allolactose solution. The obtained allolactose solution was diluted according to the dilution factors listed in Table 4 and added to LB agar media, and X-Gal (Thermo Fisher Scientific) was further added, to prepare LB agar media for Blue-White screening containing various concentrations of allolactose and X-gal. X-gal is degraded by beta-galactosidase, and the degradation product thereof, 4-chloro-3-bromo-indigo, provides blue coloration.
The JM109+pUC19 strain was streaked on each LB agar medium for Blue-White screening and cultured at 37° C. overnight, and the coloration of single-isolated colonies was observed.

[2] = tested on: lac promoter on the pUC19 plasmid; experiment: Lac promoter inducibility with DasherGFP reporter (JM109+pUC-DGFP-PtI strain); type: cell-based, E. coli JM109; settings: allolactose at 0.0075 mM in LB agar medium, 37° C. overnight, UV illuminator
Protocol: It is assumed that since blue coloration of the degradation product of X-gal by beta-galactosidase (LacZ) was used as the evaluation index in the evaluation in (6) above, allolactose was degraded by beta-galactosidase (LacZ), which is the reporter gene, and as a result the lac promoter inducibility of allolactose was attenuated under conditions with allolactose concentrations of 0.0075 to 0.015 mM.
PCR was performed by using FPB-27-441 plasmid (Cosmo Bio) as the template and primers of SEQ ID NOS: 5 and 6, to amplify a gene fragment encoding DasherGFP. Separately, PCR was performed by using a plasmid pUC19 plasmid (Takara Bio) as the template and primers of SEQ ID NOS: 7 and 8, to amplify an outside fragment of the plasmid. The PCR products were each purified by using Wizard SV Gel and PCR Clean-Up System (Promega). In-Fusion HD Cloning Kit (Takara Bio) was used to ligate the purified PCR products. E. coli JM109 was transformed with the reaction product, and cultured on LB agar medium containing 50 mg/L ampicillin at 37° C. overnight, to form colonies, to thereby obtain a transformant. A plasmid pUC19-DGFP, in which LacZα gene has been replaced with DasherGFP gene, was obtained from the obtained transformant by using Wizard Plus Miniprep System (Promega). […]

[3] = tested on: lac promoter; experiment: Lac promoter inducibility in pET expression system (GH1-2 protein expression, SDS-PAGE, strain EcGHH6); type: cell-based, E. coli Rosetta 2(DE3)pLysS; settings: liquid culture
Protocol: The lac promoter inducibility of allolactose was evaluated using the inducibility of pET expression system, which is commonly used for heterologous protein production, as an indicator. In the pET expression system, T7-polymerase, which is inducibly expressed from the lac promoter, highly expresses a gene downstream of the T7 promoter (e.g. a gene encoding a heterologous protein). As the heterologous protein to be produced, beta-galactosidase gene of a filamentous fungus Talaromyces cellulolyticus (hereinafter, also referred to as “gh1-2 gene”) was used.
RNA was prepared form cells of the T. cellulolyticus strain Y-94 (CBS 136886) by using RNeasy Plant Mini Kit (QIAGEN), and a full-length cDNA solution was prepared form the RNA solution by using SMARTer® RACE 5′/3′ kit. PCR was performed by using the cDNA solution as the template and primers of SEQ ID NOS: 13 and 14, to amplify a cDNA fragment of gh1-2 gene. Separately, PCR was performed by using a plasmid pET24a (Novagen) as the template and primers of SEQ ID NOS: 3 and 4, to amplify an outside fragment of the plasmid. The PCR products were each purified by using Wizard SV Gel and PCR Clean-Up System (Promega). In-Fusion HD Cloning Kit (Takara Bio) was used to ligate the purified PCR products. […]

SMILES: OC[C@H]1O[C@@H](OC[C@H]2OC(O)[C@H](O)[C@@H](O)[C@@H]2O)[C@H](O)[C@@H](O)[C@H]1O (some centres unmarked) [allolactose]
- Blue coloration of colonies (lac promoter inducibility) ([1]; allolactose concentrations of 0.0075 to 0.015 mM): blue coloration was obscured
- Blue coloration of colonies, i.e. induction of gene expression from the lac promoter ([1]; allolactose concentrations of 0.03 to 1.5 mM): blue coloration of colonies was observed
- Blue coloration of formed colonies of JM109 + pUC19 strain ([1]; final concentration of allolactose in plate media 0.0075 mM (dilution factor 21736)): Δ
- Blue coloration of formed colonies of JM109 + pUC19 strain ([1]; final concentration of allolactose in plate media 0.015 mM (dilution factor 10868)): Δ
- Blue coloration of formed colonies of JM109 + pUC19 strain ([1]; final concentration of allolactose in plate media 0.03 mM (dilution factor 5434)): ∘
- Blue coloration of formed colonies of JM109 + pUC19 strain ([1]; final concentration of allolactose in plate media 0.075 mM (dilution factor 2174)): ∘
- Blue coloration of formed colonies of JM109 + pUC19 strain ([1]; final concentration of allolactose in plate media 0.15 mM (dilution factor 1087)): ∘
- Blue coloration of formed colonies of JM109 + pUC19 strain ([1]; final concentration of allolactose in plate media 0.3 mM (dilution factor 543)): ∘
- Blue coloration of formed colonies of JM109 + pUC19 strain ([1]; final concentration of allolactose in plate media 1.5 mM (dilution factor 109)): ∘
- Blue coloration of formed colonies of JM109 + pUC19 strain ([1]; final concentration of allolactose in plate media 3 mM (dilution factor 54)): Δ
- Blue coloration of formed colonies of JM109 + pUC19 strain ([1]; final concentration of allolactose in plate media 15 mM (dilution factor 11)): x
- Fluorescent coloration of colonies (DasherGFP expression from lac promoter) [2]: fluorescent coloration of the colonies of the JM109+pUC-DGFP-PtI strain was observed
- Expression level of heterologous protein (GH1-2) ([3]; allolactose concentrations below 0.1 mM): decreased
- Expression of heterologous protein (GH1-2) compared with induction by 1 mM IPTG ([3]; allolactose final concentration 0.1 mM, 13° C., 14 hours): almost equally
